Publication PMC6630668, “Comprehensive Analysis of Secondary Metabolites in Usnea longissima (Lichenized Ascomycetes, Parmeliaceae) Using UPLC-ESI-QTOF-MS/MS and Pro-Apoptotic Activity of Barbatic Acid” (Molecules, 2019)

Legend:
[1] = system: DU-145 (Human prostate cancer); experiment: MTT cytotoxicity assay, DU-145; assay type: cell-based; conditions: 50% cell proliferation inhibitory concentration after 48 h of compound treatment, compounds
Description: (§1) MTT assay was performed as described earlier. Cells were plated at a density of 1 × 10^4 cells/well in 100 µL Dulbecco’s Modified Eagle Medium (DMEM)/Minimum Essential Media (MEM) medium, supplemented with 10% FBS in 96-well plates for 24 h. After incubation, cells were treated with standard doxorubicin and test compounds for 48 h. After 48 h of treatment, 10 µL MTT (3-(4,5-dimethylthiazol-2 yl)-2,5-diphenyl tetrazolium bromide) (5 mg/mL) were added to each well and the plates were further incubated for 4 h. After 4 h, 100 µL DMSO was added to each well and absorbance at 570 nm wavelength was recorded spectrophotometrically.

[2] = system: HEK-293 (Normal cell line, Human embryonic kidney); experiment: MTT cytotoxicity assay, HEK-293; assay type: cell-based; conditions: compounds
Description: as §1

A549 (Human lung cancer) = experiment: MTT cytotoxicity assay, A549; assay type: cell-based; conditions: 50% cell proliferation inhibitory concentration after 48 h of compound treatment, compounds
Description: as §1

[3] = system: HeLa (Human cervical cancer); experiment: MTT cytotoxicity assay, HeLa; assay type: cell-based; conditions: 50% cell proliferation inhibitory concentration after 48 h of compound treatment, compounds
Description: as §1

[4] = system: MCF-7 (Human breast cancer); experiment: MTT cytotoxicity assay, MCF-7; assay type: cell-based; conditions: MCF7, 50% cell proliferation inhibitory concentration after 48 h of compound treatment, compounds
Description: as §1

CDK4 and Cyclin D1 = experiment: Immunoblot assay for CDK4 and Cyclin D1; assay type: cell-based, human; conditions: A549, 21 at 1 and 2 µM for 48 h; doxorubicin 1 µM
Description: (§2) Following treatments, cells were washed twice with PBS and lysed in 1× SDS sample buffer. Proteins were separated on 10% SDS-polyacrylamide gels and transferred onto nitrocellulose membranes. Membranes were washed twice with tween Tris-buffered saline before blocking nonspecific binding with 5% nonfat dry milk (Blotto, Santa Cruz Biotechnology, Dallas, TX, USA) or 3% bovine serum albumin. Anti-Poly ADP-ribose Polymerase (PARP) (11835238001-Roche) antibody, that detects total and cleaved PARP was used at 1:1000 dilutions, and membranes were incubated for 2 h at room temperature. Anti-Cyclin D1 (C7464, Sigma Aldrich) and anti-CDK4 (SAB140559, Sigma Aldrich) were detected similar to PARP protein. Membranes were washed three times, and detection was performed using horseradish peroxidase-conjugated secondary antibody as described previously.

[5] = system: Poly (ADP-ribose) polymerase (PARP); experiment: Immunoblot assay for PARP cleavage; assay type: cell-based, human; conditions: A549, 21 at 1 and 2 µM for 48 h; doxorubicin 1 µM
Description: as §2

A549 cells [6] = experiment: Annexin V-FITC assay for apoptosis; assay type: cell-based, human; conditions: A549, 24 h; for total apoptosis: control 1.12%
Description: A549 cells were seeded in six-well plates and incubated for 24 h. After incubation, cells were treated with doxorubicin at 2 µM and compound 21 at 1 and 2 µM concentrations and further incubated for 24 h. After 24 h treatment, cells were harvested by trypsinization. After harvesting, cells were washed with PBS at 5000 rpm. After washing, cells were stained with Annexin-V and propidium iodide using Annexin-V apoptosis detection kit (Sigma-Aldrich). Annexin V-FITC assay was performed as described earlier.

A549 cells [7] = experiment: Cell cycle analysis by flow cytometry; assay type: cell-based, human; conditions: A549, 24 h
Description: Flow cytometric analysis (FACS) was performed to evaluate the cell cycle arrest. A549 cells were seeded, incubated for 24 h and then treated with doxorubicin at 2 µM and compound 21 at 1 and 2 µM concentrations for 24 h. After that, cells were harvested and washed with phosphate buffered saline (PBS) followed by fixation in ice cold 70% ethanol. After fixation cells were incubated with RNase A (0.1 mg/mL) at 37 °C for 30 min and stained with propidium iodide (Sigma Aldrich, St. Louis, MO, USA) (50 μg/mL) for 30 min on ice in dark. Cell cycle analysis was performed by flow cytometry (Becton Dickinson FACS Caliber instrument).

A549 cells [8] = experiment: Hoechst staining for apoptosis; assay type: cell-based, human; conditions: A549, 1 and 2 µM, 48 h
Description: A549 cells were seeded on cover slips and incubated for 24 h. After incubation, cells were treated with doxorubicin at 2 µM and compound 21 at 1 and 2 µM concentrations for 48 h. After 48 h treatment, Hoechst staining was performed using H33258 dye. Florescence images were captured by Olympus microscope using 10X lens.

caspase-3 = experiment: Caspase-3 assay (fluorimetric, Ac-DEVD-AMC); assay type: cell-based, human; conditions: A549, 2 µM
Description: Following treatment, cell lysates were washed twice with phosphate-buffered saline and dissolved in lysis buffer (50 mM HEPES (pH 7.4) containing 5 mM CHAPS and 5 mM DTT) for 15 min on ice. Later, cells were centrifuged at 14,000× g for 15 min, under cold conditions, and collected the clear supernatant. The supernatant was added to assay buffer (20 mM HEPES (pH 7.4), 2 mM EDTA, 0.1% CHAPS, and 5 mM DTT) containing caspase 3 substrate (Ac-DEVD-AMC, 40 μM) in a final volume of 100 μL as described earlier. The incubation was performed for 1 h at 37 °C with readings recorded at 5-min intervals. Fluorescence released by AMC was measured at 360-nm and 460-nm excitation and emission wavelengths, respectively. Values were normalized to protein concentration and expressed as fold change of activity relative to DMSO control.

human cancer cell lines = experiment: MTT cytotoxicity assay, panel of cancer cell lines; assay type: cell-based; conditions: HeLa, MCF-7 and DU-145, range over the cell lines, read-out: IC50 on additional cancer cell lines
Description: as §1

[9] = Homo sapiens, 2 µM, read-out: live (viable) cells (LL)
[10] = Homo sapiens, HEK293, 48 h, after 48 h of compound treatment

| PARP cleavage (in words) [5] | Structure (SMILES) | IC50 [1] | IC50 (A549 (Human lung cancer)) | IC50 [3] | IC50 [4] | CDK4 and Cyclin D1 protein levels (in words) (CDK4 and Cyclin D1) | early apoptotic cells (LR) (A549 cells [6]; 2 µM) | late apoptotic cells (UR) (A549 cells [6]; 2 µM) | necrotic cells (UL) (A549 cells [6]; 2 µM) | viability at 2 µM (A549 cells [6]; [9]) | IC50 [2, 10] | further results |
| --- | --- | --- | --- | --- | --- | --- | --- | --- | --- | --- | --- | --- |
| – | CC(=O)C1=C(O)C=C2Oc3c(C(C)=O)c(O)c(C)c(O)c3C2(C)C1=O (single isomer, unassigned; (+)) [compound 22, (+)-usnic acid] | 24.2 ± 0.99 µM | 13.8 ± 1.11 µM | 18.9 ± 2.06 µM | 19.2 ± 2.05 µM | – | – | – | – | – | – | IC50 ([2]; Homo sapiens, HEK293, after 48 h of compound treatment): 125 ± 1.98 µM |
| robust cleavage of PARP protein | COc1cccc2c1C(=O)c1c(O)c3c(c(O)c1C2=O)C[C@@](O)(C(=O)CO)C[C@@H]3O[C@H]1C[C@H](N)[C@H](O)[C@H](C)O1 [Doxorubicin, doxorubicin, reference compound] | 1.51 ± 0.84 µM | 1.95 ± 0.97 µM | 1.55 ± 1.32 µM | 1.62 ± 0.36 µM | accumulated | 22.3% | 9.79% | 0.12% | 67.8% | – | – |
| – | C[C@@H]1C(=O)OC(CCCCCCCCCCCCC[C@@H](C)O)C1C(=O)O (stereo partly drawn) [compound 19, 18R-hydroxy-dihydroalloprotolichesterinic acid] | 27 ± 2.92 µM | 20.2 ± 1.99 µM | 22.7 ± 0.97 µM | 20 ± 0.74 µM | – | – | – | – | – | 55.9 ± 1.55 µM | – |
| – | CC1=C(C(=O)O)[C@H](CCCCCCCCCCCCCC(C)O)OC1=O (stereo partly drawn) [compound 20, neuropogolic acid] | 26.1 ± 1.09 µM | 19.1 ± 3.86 µM | 23.6 ± 0.74 µM | 22.3 ± 4.05 µM | – | – | – | – | – | 113 ± 3.82 µM | – |
| robust cleavage of PARP protein | COc1cc(C)c(C(=O)Oc2cc(C)c(C(=O)O)c(O)c2C)c(O)c1C [compound 21, barbatic acid] | 9.03 ± 2.11 µM | 1.78 ± 0.62 µM | 3.02 ± 0.11 µM | 3.16 ± 0.88 µM | accumulated | 9.05% | 0.24% | 0.07% | 90.6% | > 100 µM | cell accumulation in G0/G1 phase (A549 cells [7]; 1 µM): 70.9%; cell accumulation in G0/G1 phase (A549 cells [7]; 2 µM): 74.4%; Hoechst staining, nuclear morphology (in words) (A549 cells [8]): chromatin condensation and fragmented nuclei; IC50 ([2]; after 48 h of compound treatment): 125 ± 2.65 µM; caspase-3 activity (in words) (caspase-3): increased maximally; IC50 (human cancer cell lines): 3.02 to 9.03 µM; early apoptotic cells (LR) (A549 cells [6]; 1 µM): 7.68%; late apoptotic cells (UR) (A549 cells [6]; 1 µM): 0.10%; necrotic cells (UL) (A549 cells [6]; 1 µM): 0.00%; total apoptosis (A549 cells [6]; 1 µM): about 7.78%; total apoptosis (A549 cells [6]; 2 µM): ~9.29%; viability at 1 µM (A549 cells [6]; Homo sapiens, 1 µM, read-out: live (viable) cells (LL)): 92.2% |
